Measured values as given in patent US20240325373A1, “METHODS AND COMPOSITIONS FOR INHIBITION OF DIHYDROOROTATE DEHYDROGENASE IN COMBINATION WITH AN ANTI-CD47-SIRPA THERAPEUTIC AGENT” (OHIO STATE INNOVATION FOUNDATION, priority 2021, published 2024).

Experiments:
MV4-11 cells = assay: CALR, CD47 and SIRPα surface expression (MFI, flow cytometry) in MV4-11 cells after DHODHi treatment with or without uridine; assay type: cell-based; conditions: 72 h; BRQ 500 nM, Cpd4 10, 25, 50, 100 nM, BAY 1 nM; reversible with 0.1 mM uridine
Method: MV4-11 cells were treated with vehicle (DMSO), brequinar (BRQ, 500 nM), Cpd4 (10, 25, 50, 100 nM), or BAY2402234 (BAY, 1 nM) for 72 hours, in the presence or absence of exogenous uridine (0.1 mM). After the 72-hour treatment, cells were collected, washed and stained for flow cytometric analysis and the mean fluorescent intensity (MFI) measured to determine calreticulin (CALR) and CD47 surface expression.
(§1) FIGS. 8A-8B show representative data for the Mean Fluorescent Intensity (MFI) of SIRPα (CD172a) surface expression following the indicated treatments. […] Briefly, cells were treated for 72 hours to determine SIRPα level using flow cytometry and determine if SIRPα level was different in the P53 mutant clones. As shown, SIRPα level appears modestly higher in the heterozygous P53 MV4-11 clone. […] Briefly, MV4-11 cells were treated for 72 hours with DHODHi with or without uridine to measure SIRPα surface expression post DHODHi therapy.

MOLM-13 cells = assay: Disseminated MOLM-13 xenograft, treatment from 4 days after implantation (Example 5); assay type: in vivo; parameters: ILS / Median survival: unit not given here; conditions: for Statistical Significance: vs vehicle; for Median survival Ratio: Column A (vehicle) to Column B; for Median survival: treated group; for Hazard Ratio (Logrank) Ratio / Hazard Ratio (Mantel-Haenszel) Ratio: vehicle (Group 1) vs treated
Method: Briefly, ten week old male NCG mice (NOD-Prkdcem26Cd52//2rgem26Cd22/NjuCrl, Charles River) were injected intravenously (i.v.) in the tail vein with 1×10^5 MOLM-13 cells resuspended in cold phosphate buffer saline (PBS), using 0.2 mL of a suspension at 5×10^5 MOLM-13 cells/mL. Four days after tumor cell implantation, which was designated as Day 1 of the study, mice were randomized into eight treatment groups (n=10) based on body weights. Note that for the sample administration above, vehicle was a 50/50 mix of 40% HPBCD in sterile water and 10% Ethanol/90% PEG400. […] The remaining mice were left on study to monitor for an additional 25 days to determine if any residual disease would relapse following drug cessation. Thus, at day 106, all remaining mice were euthanized and spleens and bone marrow were harvested and analyzed by flow cytometry to investigate whether residual disease was present.

[1] = tested on: MV4-11 P53 wild type, heterozygous and homozygous clones; assay: Sensitivity and CD47/SIRPα surface expression of MV4-11 P53 clones treated with DHODHi; assay type: cell-based; conditions: 72 h; reversed with 0.1 mM exogenous uridine
Method: MV4-11 cell line was reported to harbor a R248W TP53 hotspot mutation (Yan B, Chen Q, Xu J, Li W, Xu B, Qiu Y. Leukemia 2020 doi 10.1038/s41375-020-0710-7.). Accordingly, the MV4-11 cell line was single cell sorted to separate the P53 mutant sub-clone and generated three clones; P53 wild type, P53 heterozygous, and P53 homozygous to interrogate the potential role of P53 mutation on DHODHi activity and if DHODHi affected CD47 expression. Therefore, MV4-11 clones were treated with DHODHi, brequinar (BRQ) or Cpd4 for 72 hours. Cells were then collected, washed with PBS then stained for flow cytometry analysis of CD47 surface expression and the overall sensitivity of the MV4-11 clones to DHODHi.
as §1

[2] = Separate cell-based assays (IC50 of Cpd4)
MM1.S = assay: CD47 surface expression by flow cytometry in multiple myeloma cell line MM1.S; assay type: cell-based; conditions: from 48 h after the start of treatment
Method: (§2) Briefly, tumor cells were typically grown at 37° C. in a humidified atmosphere with 5% C02 in RPMI 1640 medium, supplemented with 10% (v/v) fetal calf serum and 50 μg/ml gentamicin for up to 20 passages, and were typically passaged once or twice weekly. Cells were harvested by centrifugation, and the percentage of viable cells were determined using a CASY Model TT cell counter (OMNI Life Science). Cells were harvested from exponential phase cultures, counted and plated in […] plates at a cell density depending on the cell line's growth rate in RPMI 1640 medium supplemented with 10% (v/v) fetal calf serum and 50 µg/ml gentamicin (140 μl/well). At the time of plating, a t=0 h timepoint was taken as a baseline measurement (dotted horizontal lines in the figures). Cultures were incubated at 37° C. and 5% C02 in a humidified atmosphere. At 24 h after cell seeding, DMSO (vehicle control) or the test compound at three different concentrations was added, and left on the cells for another 48 h, 96 h, or 144 h. […] After standard washing techniques, the cells were analyzed on an Attune NxT Acoustic Focusing Cytometer (Thermo Fisher Scientific, Waltham, MA). Antibody Binding Capacity (ABC) was determined using Quantum™ Simply Cellular® quantification beads (Bio-Rad Laboratories, Hercules, CA).

MOLM-13 tumor cells = assay: Disseminated MOLM-13 aggressive xenograft, treatment from 10 days after implantation (Example 6); assay type: in vivo; conditions: for BW Nadir (Lowest Mean Body Weight for Group): % of initial mean BW
Method: Briefly, NCG mice were i.v. injected in the tail vein with 1×10^5 MOLM-13 tumor cells suspended in PBS in a cell injection volume of 0.2 mL/mouse. Animals were randomized into treatment groups based on Day 1 body weight. The study start date (Day 1) was at 10 days post implant (tumor injection). In the study, males were separated into single housing if excessive fighting or aggressive behavior was observed. The animals were 8 to 12 weeks old at study start. […] Any group with a mean body weight loss of >20% or >10% mortality had dosing terminated, but not euthanized, and allowed to recover. Within a group, any individual animal with a >20% weight loss endpoint were euthanized. […] At the endpoint, the animals were euthanized per standard procedure. Clinical signs associated with progression of tumor include impairment of hind limb function, ocular proptosis, and weight loss. Full hindlimb paralysis, ocular proptosis, or moribundity were considered sufficient for euthanasia.

H929 = assay: CD47 surface expression by flow cytometry in multiple myeloma cell line H929; assay type: cell-based; conditions: from 48 h after the start of treatment
Method: as §2

U266B1 = assay: CD47 surface expression and viability by flow cytometry in multiple myeloma cell line U266B1; assay type: cell-based; conditions: three concentrations of Cpd4
Method: as §2

[3] = tested on: a variety of unrelated viruses; conditions: in vitro; Harvey et al. (2009); read-out: EC50, inhibition of virus replication; cited from earlier work

SMILES: CCn1c(CO)nn(-c2cc(O[C@@H](C)C(F)(F)F)c(C(=O)Nc3c(F)cccc3Cl)cc2F)c1=O [BAY2402234, N-(2-chloro-6-fluorophenyl)-4-(4-ethyl-3-(hydroxymethyl)-5-oxo-4,5-dihydro-1H-1,2,4-triazol-1-yl)-5-fluoro-2-((1,1,1-trifluoropropan-2-yl)oxy)benzamide, reference compound]
- CALR surface expression (MFI) (MV4-11 cells): upregulated
- CD47 surface expression (MFI) (MV4-11 cells): upregulated
- Deaths NTRa (MOLM-13 cells; 4 mg/kg po qd): 1
- ILS (MOLM-13 cells; 4 mg/kg po qd): 144
- Mean BW Nadir (MOLM-13 cells; 4 mg/kg po qd): −5.7%
- Median TTE (MOLM-13 cells; 4 mg/kg po qd): 44.0
- n Remaining Day 106 (MOLM-13 cells; 4 mg/kg po qd): 0
- Statistical Significance (MOLM-13 cells; 4 mg/kg po qd): *** (*** = P ≤ 0.001)
- Median survival Ratio (MOLM-13 cells; 4 mg/kg po qd): 0.4091
- Median survival (MOLM-13 cells; 4 mg/kg po qd): 44
- Hazard Ratio (Logrank) Ratio (MOLM-13 cells; 4 mg/kg po qd): 4.397
- Hazard Ratio (Mantel-Haenszel) Ratio (MOLM-13 cells; 4 mg/kg po qd): 21.48

SMILES: Cc1c(-c2ccc(-c3ccccc3F)cc2)nc2ccc(F)cc2c1C(=O)O [BRQ, 6-fluoro-2-(2′-fluoro-1,1-biphenyl-4-yl)-3-methyl-4-quinolinecarboxylic acid, reference compound]
- CALR surface expression (MFI) (MV4-11 cells): upregulated
- CD47 surface expression (MFI) (MV4-11 cells): upregulated
- CD47 surface expression [1]: upregulate surface CD47 expression regardless of the P53 mutation status
- SIRPα surface expression [1]: upregulate surface SIRPα expression regardless of the P53 mutation status

SMILES: CCCCOc1cccc(-c2ccc(-c3cc(C(=O)O)c4cc(F)ccc4n3)cc2)c1 [Cpd4, 2-(3′-butoxy-[1,1′-biphenyl]-4-yl)-6-fluoroquinoline-4-carboxylic acid]
- CALR surface expression (MFI) (MV4-11 cells): upregulated
- CD47 surface expression (MFI) (MV4-11 cells): upregulated
- IC50 [2]: 11 nM
- CD47 surface expression (MM1.S): increase in CD47 surface expression in these cell lines apparent starting at 48 h
- ILS (Increased Life Span) (MOLM-13 tumor cells; Cpd4 4.12 mg/kg po qd to end): 174.1
- Median TTE (Median Time to Endpoint) (MOLM-13 tumor cells; Cpd4 4.12 mg/kg po qd to end): 37 days
- NTR (No. of Non-treatment-related Deaths, due to Accident/Unknown Etiology) (MOLM-13 tumor cells; Cpd4 4.12 mg/kg po qd to end): 0
- NTRm (No. of Non-treatment-related Deaths, due to Metastasis) (MOLM-13 tumor cells; Cpd4 4.12 mg/kg po qd to end): 0
- TR (No. of Treatment-related Deaths) (MOLM-13 tumor cells; Cpd4 4.12 mg/kg po qd to end): 0
- s (Number of Remaining Animals) (MOLM-13 tumor cells; Cpd4 4.12 mg/kg po qd to end): 0
- BW Nadir (Lowest Mean Body Weight for Group) (MOLM-13 tumor cells; Cpd4 4.12 mg/kg po qd to end): −9.0% (35)
- ILS (Increased Life Span) (MOLM-13 tumor cells; Cpd4 10.31 mg/kg po qd to end): 225.9
- Median TTE (Median Time to Endpoint) (MOLM-13 tumor cells; Cpd4 10.31 mg/kg po qd to end): 44 days
- NTR (No. of Non-treatment-related Deaths, due to Accident/Unknown Etiology) (MOLM-13 tumor cells; Cpd4 10.31 mg/kg po qd to end): 0
- NTRm (No. of Non-treatment-related Deaths, due to Metastasis) (MOLM-13 tumor cells; Cpd4 10.31 mg/kg po qd to end): 0
- TR (No. of Treatment-related Deaths) (MOLM-13 tumor cells; Cpd4 10.31 mg/kg po qd to end): 0
- s (Number of Remaining Animals) (MOLM-13 tumor cells; Cpd4 10.31 mg/kg po qd to end): 5
- BW Nadir (Lowest Mean Body Weight for Group) (MOLM-13 tumor cells; Cpd4 10.31 mg/kg po qd to end): −5.2% (42)
- CD47 surface expression (H929): increase in CD47 surface expression in these cell lines apparent starting at 48 h
- overall cell viability (U266B1; 48 h, 96 h, 144 h): dose-dependent correlation in Cpd4 concentration and overall cell viability
- surface expression of CD47 (median fluorescence intensity, antibody binding capacity) (U266B1; 96 h and 144 h): increased in a dose-dependent manner
- CD47 surface expression [1]: upregulate surface CD47 expression regardless of the P53 mutation status
- SIRPα surface expression [1]: upregulate surface SIRPα expression regardless of the P53 mutation status
- ILS (MOLM-13 cells; 4 mg/kg po qd): 125
- Mean BW Nadir (MOLM-13 cells; 4 mg/kg po qd): −4.1%
- Median TTE (MOLM-13 cells; 4 mg/kg po qd): 40.5
- n Remaining Day 106 (MOLM-13 cells; 4 mg/kg po qd): 0
- Statistical Significance (MOLM-13 cells; 4 mg/kg po qd): *** (*** = P ≤ 0.001)
- Deaths TR (MOLM-13 cells; 10 mg/kg po qd): 0
- ILS (MOLM-13 cells; 10 mg/kg po qd): 183
- Mean BW Nadir (MOLM-13 cells; 10 mg/kg po qd): −3.5%
- Median TTE (MOLM-13 cells; 10 mg/kg po qd): 51.0
- n Remaining Day 106 (MOLM-13 cells; 10 mg/kg po qd): 0
- Statistical Significance (MOLM-13 cells; 10 mg/kg po qd): *** (*** = P ≤ 0.001)
- Median survival Ratio (MOLM-13 cells; 4 mg/kg po qd): 0.4444
- Median survival Ratio (MOLM-13 cells; 10 mg/kg po qd): 0.3529
- Median survival (MOLM-13 cells; 4 mg/kg po qd): 40.5
- Median survival (MOLM-13 cells; 10 mg/kg po qd): 51
- Hazard Ratio (Logrank) Ratio (MOLM-13 cells; 4 mg/kg po qd): 4.553
- Hazard Ratio (Mantel-Haenszel) Ratio (MOLM-13 cells; 4 mg/kg po qd): 25.21
- Hazard Ratio (Logrank) Ratio (MOLM-13 cells; 10 mg/kg po qd): 4.553
- Hazard Ratio (Mantel-Haenszel) Ratio (MOLM-13 cells; 10 mg/kg po qd): 25.21

SMILES: O=C(N[C@@H]1CCCc2c1[nH]c1ccc(Cl)cc21)c1ccccn1 [GSK983]
- EC50 [3]: 5 to 20 nM
